Source: PMC7069944, “Amino acid levels determine metabolism and CYP450 function of hepatocytes and hepatoma cell lines” (Nature Communications, 2020)
Several values for one entry are separate records, joined by “and”; a condition that tells them apart may be missing. Identical values can stand only once.

Key:
Conditions in all cases: repeat exposure
HepG2 = assay: Repeated-exposure DILI training compounds, resazurin conversion, HepG2
Summary of the method: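 Viability by resazurin conversion, correlated with Cmax, was assessed after drug exposure in 384-well cultures of differentiated PSCs and of HepG2 (40,000 cells/well). Dosing began 8 h post-attachment, with untreated wells as negative control.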

HLC = assay: Repeated-exposure DILI training compounds, resazurin conversion, HLC
Summary of the method: (§1)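 PSC-derived cells differentiated in 384-well format, plus HepG2 seeded at 40,000 cells/well, received drugs after 8 h of attachment; untreated wells served as negative controls. Viability was measured by resazurin conversion and related to therapeutic Cmax values.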

HC3X = assay: Repeated-exposure DILI training compounds, resazurin conversion, HC3X
Summary of the method: as §1

HC6X = assay: Repeated-exposure DILI training compounds, resazurin conversion, HC6X
Summary of the method: as §1

For `CN(C)C(=N)N=C(N)N` [metformin], the “% resazurin conversion” value (HepG2; HepG2 AAGLY D30, 3 uM) was 106.5% and 83.4% and 85.8% and 89.2% and 108.4% and 105.4%, the “% resazurin conversion” value (HepG2; HepG2 AAGLY D30, 5 uM) was 88% and 69.4% and 79.7% and 91.5% and 76.9% and 122.8% and the “% resazurin conversion” value (HepG2; HepG2 AAGLY D30, 10 uM) was 92.9% and 78.4% and 78.2% and 87.4% and 93.3%. For the same molecule, the “% resazurin conversion” value (HepG2; HepG2 AAGLY D30, 30 uM) was 87% and 68% and 60.1% and 90.4% and 65.8% and 86.5%, the “% resazurin conversion” value (HepG2; HepG2 AAGLY D30, 50 uM) was 88% and 78.4% and 75.6% and 85.4% and 68.8% and 94.1% and the “% resazurin conversion” value (HepG2; HepG2 AAGLY D30, 100 uM) was 77.9% and 69.4% and 77.6% and 78.3% and 71.2% and 86.1%. For the same molecule, the “% resazurin conversion” value (HepG2; HepG2 AAGLY D30, 300 uM) was 86.3% and 86.2% and 78.9% and 85.6% and 74.5% and 86.7%, the “% resazurin conversion” value (HepG2; HepG2 AAGLY D30, 600 uM) was 84.6% and 71.8% and 75.9% and 95.3% and 64.4% and 77.4% and the “% resazurin conversion” value (HepG2; HepG2 AAGLY D30, 1200 uM) was 73.9% and 67.2% and 67.9% and 98.6% and 62.2% and 57.6%. For the same molecule, the “% resazurin conversion” value (HepG2; HepG2 CTL D7, 3 uM) was 101.7%, the “% resazurin conversion” value (HepG2; HepG2 CTL D7, 5 uM) was 111.2% and 104.6% and 117.2% and 107.8% and 111% and 112.7% and the “% resazurin conversion” value (HepG2; HepG2 CTL D7, 10 uM) was 105.8% and 104.6% and 92.9% and 101.2% and 94.9% and 100.3%. For the same molecule, the “% resazurin conversion” value (HepG2; HepG2 CTL D7, 30 uM) was 99.1% and 100.4% and 105.9% and 109.1% and 102.2%, the “% resazurin conversion” value (HepG2; HepG2 CTL D7, 50 uM) was 97.6% and 97.7% and 100.3% and 99.5% and 102% and 100.6% and the “% resazurin conversion” value (HepG2; HepG2 CTL D7, 100 uM) was 101.5% and 103.6% and 107.4% and 101.8% and 103.4% and 105%. For the same molecule, the “% resazurin conversion” value (HepG2; HepG2 CTL D7, 300 uM) was 89.7% and 83.5% and 88.5% and 95.8% and 93.1% and 96.3%, the “% resazurin conversion” value (HepG2; HepG2 CTL D7, 600 uM) was 92.6% and 88.6% and 89.1% and 90.3% and 94.1% and 93.8% and the “% resazurin conversion” value (HepG2; HepG2 CTL D7, 1200 uM) was 80.9% and 84% and 84.2% and 85.5% and 84.4%. The “% resazurin conversion” value (HLC; HLC AAGLY D40, 3 uM) was 117.8% and 180.2% and 192.1% and 138.7% and 131.9% and 161.2%, the “% resazurin conversion” value (HLC; HLC AAGLY D40, 10 uM) was 85.1% and 137.4% and 97.3% and 121% and 128.3% and 141.7% and the “% resazurin conversion” value (HLC; HLC LDM D40, 3 uM) was 115.5% and 119.8% and 128.3% and 105.8% and 132.2% and 110.8%. For the same molecule, the “% resazurin conversion” value (HLC; HLC LDM D40, 10 uM) was 112.2% and 115.2% and 101.7% and 107.6% and 122.7% and 95.8%, the “% resazurin conversion” value (HLC; HLC LDM D40, 30 uM) was 101.1% and 127.7% and 123.7% and 100.6% and 111.7% and 97.3% and the “% resazurin conversion” value (HLC; HLC LDM D40, 50 uM) was 69.5% and 123.5% and 118.7% and 111% and 112.5% and 97.1%. The “% resazurin conversion” value (HLC; HLC LDM D40, 100 uM) was 130.3% and 131.7% and 140% and 109.2% and 99.5% and 135.5%, the “% resazurin conversion” value (HLC; HLC LDM D40, 300 uM) was 131.8% and 130.1% and 119.9% and 132.8% and 107.9% and 132.1% and the “% resazurin conversion” value (HLC; HLC LDM D40, 600 uM) was 142.1% and 137.1% and 121.7% and 130.5% and 134.1% and 94.8%. The “% resazurin conversion” value (HLC; HLC LDM D40, 1200 uM) was 117% and 113% and 129.7% and 145.7% and 140.5% and 102.5%, the “% resazurin conversion” value (HC3X; HC3X AAGLY D40, 3 uM) was 107.4% and 112.9% and 102.8% and 86.5% and 93.5% and 86.7% and the “% resazurin conversion” value (HC3X; HC3X AAGLY D40, 5 uM) was 117.3% and 115.7% and 110.3% and 104.4% and 106.7% and 61.4%. For the same molecule, the “% resazurin conversion” value (HC3X; HC3X AAGLY D40, 10 uM) was 108.5% and 87.5% and 112.1% and 74.4% and 97.6% and 102.3%, the “% resazurin conversion” value (HC3X; HC3X AAGLY D40, 30 uM) was 105.4% and 101.2% and 96.4% and 131.5% and 86.6% and 96.2% and the “% resazurin conversion” value (HC3X; HC3X AAGLY D40, 50 uM) was 110.2% and 114.4% and 75% and 103.1% and 92.6% and 99.9%. The “% resazurin conversion” value (HC3X; HC3X AAGLY D40, 300 uM) was 121.9% and 148% and 124.4% and 102.2% and 122.5% and 91.9%, the “% resazurin conversion” value (HC3X; HC3X AAGLY D40, 600 uM) was 150.2% and 156.7% and 145.2% and 144.4% and 152.7% and 115% and the “% resazurin conversion” value (HC3X; HC3X AAGLY D40, 1200 uM) was 124.1% and 158.2% and 141.5% and 92.2% and 126.1% and 100%. For the same molecule, the “% resazurin conversion” value (HC6X; HC6X AAGLY D40, 3 uM) was 75.6% and 127.9% and 120.9% and 66.8% and 78.3% and 77.4%, the “% resazurin conversion” value (HC6X; HC6X AAGLY D40, 10 uM) was 91.8% and 85.1% and 137.3% and 90.8% and 71.9% and 90% and the “% resazurin conversion” value (HC6X; HC6X AAGLY D40, 30 uM) was 64% and 86.6% and 97% and 73.8% and 121% and 127.4%. For the same molecule, the “% resazurin conversion” value (HC6X; HC6X AAGLY D40, 50 uM) was 73.2% and 144.6% and 104.7% and 102.8% and 73.1% and 92.5%, the “% resazurin conversion” value (HC6X; HC6X AAGLY D40, 100 uM) was 106.4% and 149.7% and 103.6% and 154.2% and 106.5% and 116.8% and the “% resazurin conversion” value (HC6X; HC6X AAGLY D40, 300 uM) was 112.1% and 78.2% and 96.7% and 122.1% and 97.1% and 124%. The “% resazurin conversion” value (HC6X; HC6X AAGLY D40, 1200 uM) was 183.8% and 127.4% and 126.7% and 100% and 123.1%, the “% resazurin conversion” value (HC6X; HC6X AAGLY D40 Remove dox, 3 uM) was 170.2% and 195.5% and 109.9% and 145.7% and 191.7% and 155.1% and the “% resazurin conversion” value (HC6X; HC6X AAGLY D40 Remove dox, 5 uM) was 151.1% and 130.1% and 149.6% and 123.6% and 100% and 119.7%. For the same molecule, the “% resazurin conversion” value (HC6X; HC6X AAGLY D40 Remove dox, 10 uM) was 137.7% and 116.6% and 122.1% and 87.2% and 162.4%, the “% resazurin conversion” value (HC6X; HC6X AAGLY D40 Remove dox, 30 uM) was 189% and 104.3% and 104.5% and 116.4% and 109.9% and 115% and the “% resazurin conversion” value (HC6X; HC6X AAGLY D40 Remove dox, 50 uM) was 175.2% and 137% and 132.8% and 158.7% and 156.7% and 106.3%. The “% resazurin conversion” value (HC6X; HC6X AAGLY D40 Remove dox, 100 uM) was 169.7% and 178.1% and 127.2% and 203.2% and 156.7% and 201.6%, the “% resazurin conversion” value (HC6X; HC6X AAGLY D40 Remove dox, 300 uM) was 161.6% and 125.1% and 195.3% and 144.9% and 140.1% and the “% resazurin conversion” value (HC6X; HC6X AAGLY D40 Remove dox, 600 uM) was 164.3% and 170.2% and 157.3% and 178.7% and 172.2% and 213.4%. For the same molecule, the “% resazurin conversion” value (HC6X; HC6X AAGLY D40 Remove dox, 1200 uM) was 129.6% and 183.1% and 151.5% and 181.6% and 201.4% and 154.1%.
